“And” between values parts separate entries of the source, which are not always exact repeats. Equal values may be shown once. Read-outs that look alike come from different tables or passages of the source.
How the values were obtained:
BChE [1] = target: T1, BChE (Equus caballus, UniProt P81908); test: biochemical; format: biochemical; conditions: for Selectivity: calculated as AChE IC50/BChE IC50
T1 construct: BChE (Lee Biosolutions, Product No. 130–10-1, from equine serum); purchased Lee Biosolutions 130–10-1; host or cells: equine serum
T1 sequence (P81908 whole entry): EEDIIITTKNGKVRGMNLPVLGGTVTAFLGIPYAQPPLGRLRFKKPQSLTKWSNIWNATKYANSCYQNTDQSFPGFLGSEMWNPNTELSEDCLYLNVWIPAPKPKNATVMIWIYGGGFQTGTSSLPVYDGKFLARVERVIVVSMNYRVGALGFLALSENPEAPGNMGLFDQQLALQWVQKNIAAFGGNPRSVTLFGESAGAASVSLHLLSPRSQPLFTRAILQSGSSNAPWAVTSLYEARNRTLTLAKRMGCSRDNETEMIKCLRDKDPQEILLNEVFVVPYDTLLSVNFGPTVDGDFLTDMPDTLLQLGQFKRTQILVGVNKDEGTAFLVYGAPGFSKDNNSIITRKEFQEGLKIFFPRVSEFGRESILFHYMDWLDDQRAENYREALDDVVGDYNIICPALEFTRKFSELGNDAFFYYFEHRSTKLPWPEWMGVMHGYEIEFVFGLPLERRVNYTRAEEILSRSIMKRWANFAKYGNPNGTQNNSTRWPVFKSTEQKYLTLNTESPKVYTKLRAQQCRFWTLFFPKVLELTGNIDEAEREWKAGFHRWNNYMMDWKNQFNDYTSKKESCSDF
Protocol: (§1) Inhibition of AChE (Sigma-Aldrich, Product No. C2888, from Electrophorus electricus) and BChE (Lee Biosolutions, Product No. 130–10-1, from equine serum) was carried out as previously described by our lab[18]^,[19]. Briefly, compounds to be tested were prepared in sodium phosphate (dibasic) buffer (0.1 M) containing 10% DMSO and then diluted with phosphate buffer across the wells of a 96-well plate to reach desired concentrations (50 µL total well volume). AChE (50 µL, 400 U/L, in phosphate buffer) or BChE (50 µL, 400 U/L, in phosphate buffer) was added to the appropriate wells. After incubation, the enzymatic reaction was initiated with 100 µL of a 1:1 (v/v) solution of acetylthiocholine (ATC, 2 mM in phosphate buffer) or butyrylthiocholine (BTC, 2 mM in phosphate buffer) and 5,5′-dithiobis-(2-nitrobenzoic acid) (DTNB, 1 mM in phosphate buffer). […] IC50 values were calculated using GraphPad Prism 9.1.1.
(§2) The synthesis of the target molecules 4a-j and 5a-j was carried out in straightforward fashion by substitution of isatin or indole with iodomethane or 1-bromoalkanes in the presence of K2CO3 and DMF or NaOH and DMSO (Scheme 1). […] A DEPT135 experiment was run to differentiate this signal (negative) from the solvent (positive) (see supplementary data), as we have employed previosuly. The synthesised compounds were then evaluated as AChEI and BChEI using the established Ellman method. Results are reported as IC50 values in Table 1.

AChE [2] = target: T2, AChE (Electrophorus electricus, UniProt O42275); test: AChE inhibition assay (Ellman method); format: biochemical
T2 construct: purchased Sigma-Aldrich C2888
T2 sequence (O42275 24-633): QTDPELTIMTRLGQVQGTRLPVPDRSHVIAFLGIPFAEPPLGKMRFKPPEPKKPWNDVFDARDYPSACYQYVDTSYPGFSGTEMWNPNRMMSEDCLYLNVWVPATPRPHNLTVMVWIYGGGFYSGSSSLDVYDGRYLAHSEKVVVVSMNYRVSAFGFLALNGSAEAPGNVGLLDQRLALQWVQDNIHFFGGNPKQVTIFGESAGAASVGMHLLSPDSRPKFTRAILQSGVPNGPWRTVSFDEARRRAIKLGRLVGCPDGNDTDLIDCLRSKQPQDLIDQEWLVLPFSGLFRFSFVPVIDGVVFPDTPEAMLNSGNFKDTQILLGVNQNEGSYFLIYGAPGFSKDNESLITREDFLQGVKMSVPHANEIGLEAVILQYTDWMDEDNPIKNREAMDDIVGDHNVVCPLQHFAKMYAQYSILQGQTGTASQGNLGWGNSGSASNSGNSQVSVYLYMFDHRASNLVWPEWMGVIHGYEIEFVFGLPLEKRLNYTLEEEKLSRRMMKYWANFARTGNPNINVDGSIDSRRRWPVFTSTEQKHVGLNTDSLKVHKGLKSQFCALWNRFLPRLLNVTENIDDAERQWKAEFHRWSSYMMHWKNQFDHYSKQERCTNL
Protocol: as §1, §2

BChE [3] = target: T1, BChE; conditions: previously reported; cited from earlier work
AChE [4] = target: T2, AChE; conditions: values previously determined; cited from earlier work
AChE [5] = conditions: previously reported by Hyatt et al.; cited from earlier work
BChE [6] = conditions: previously reported by Hyatt et al.; cited from earlier work
BChE [7] = target: T1, BChE; conditions: read-out: BChE IC50; values previously determined; cited from earlier work
AChE [8] = target: T2, AChE; conditions: previously reported; cited from earlier work
BChE [9] = target: T1, BChE; test: Kinetics assay of BChE inhibition (Lineweaver-Burk plot); format: biochemical, equine; conditions: Lineweaver-Burk analysis with respect to butyrylthiocholine (BTC)
Protocol: (§3) Kinetics assays of 4i inhibition with AChE and BChE were also carried out as previously described[18]^,[19]. Briefly, varying concentrations of 4i were incubated with AChE and BChE before initiating the enzymatic reactions by addition of 100 µL of a 1:1 (v/v) solution of ATC or BTC (0.4 mM, 0.5 mM, 1 mM, or 2 mM in phosphate buffer) and DTNB (1 mM in phosphate buffer) to all wells. […] Rate vs concentration was fitted to a Lineweaver-Burk plot using GraphPad Prism 9.1.1.

AChE [10] = target: T2, AChE; test: Kinetics assay of AChE inhibition (Lineweaver-Burk plot); format: biochemical; conditions: Lineweaver-Burk analysis with respect to acetylthiocholine (ATC)
Protocol: as §3

[11] = mean of three independent experiments ± SEM, > X = highest soluble concentration tested, read-out: BChE IC50
[12] = mean of three independent experiments ± SEM, > X = highest soluble concentration tested, read-out: AChE IC50

| SMILES | Selectivity (BChE [1]) | IC50 (BChE [1]; [11]) [µM] | IC50 (AChE [2]; [12]) [µM] | other results |
| --- | --- | --- | --- | --- |
| CCn1ccc2ccccc21 [Compound 5b, 1-Ethyl-1H-indole] | < 0.8 |  |  | IC50 (BChE [1]): > 125 µM; IC50 (AChE [2]): 101 ± 6 µM |
| CCCCCCn1ccc2ccccc21 [Compound 5f, 1-Hexyl-1H-indole] | < 0.6 | > 125 | 76.2 ± 1.6 |  |
| O=C1C(=O)N(CCCCCN2C(=O)C(=O)c3ccccc32)c2ccccc21 [Compound 1] |  |  |  | mode of inhibition of BChE (BChE [3]): mixed inhibition |
| CCCCCCCN1C(=O)C(=O)c2ccccc21 [Compound 4g, 1-Heptylindoline-2,3-dione] | 3.3 | 20.7 ± 3.3 | 67.8 ± 7.8 |  |
| CCCCN1C(=O)C(=O)c2ccccc21 [Compound 4d, 1-Butylindoline-2,3-dione] | 7.3 | 73.7 ± 1.3 |  | IC50 (AChE [4]): 540 ± 23 µM |
| CCCCCCCCN1C(=O)C(=O)c2ccccc21 [Compound 4h, 1-Octylindoline-2,3-dione] | > 7.0 | 17.9 ± 1.8 | > 125 |  |
| CCCCCN1C(=O)C(=O)c2ccccc21 [Compound 4e, 1-Pentylindoline-2,3-dione] | 2.4 | 83.8 ± 3.4 | 197 ± 51 |  |
| CCCCCCCCCCCCN1C(=O)C(=O)c2ccccc21 [N-dodecyl isatin] |  |  |  | Ki (AChE [5]): > 100 µM; Ki (BChE [6]): > 100 µM |
| CCCCn1ccc2ccccc21 [Compound 5d, 1-Butyl-1H-indole] |  | > 125 | > 125 |  |
| CCCN1C(=O)C(=O)c2ccccc21 [Compound 4c, 1-Propylindoline-2,3-dione] | 2.0 | 257 ± 8 | 519 ± 11 |  |
| O=C1Nc2ccccc2C1=O [isatin, indoline-2,3-dione] |  |  |  | IC50 (AChE [4]): > 1000 µM; IC50 (BChE [7]): > 1000 µM |
| CCCCCCCCCCN1C(=O)C(=O)c2ccccc21 [Compound 4j, 1-Decylindoline-2,3-dione] | 12.1 | 5.16 ± 0.66 | 62.2 ± 8.5 |  |
| CCCCCCN1C(=O)C(=O)c2ccccc21 [Compound 4f, 1-Hexylindoline-2,3-dione] | > 1.4 | 90.8 ± 2.3 | > 125 |  |
| CCCCCCCCCn1ccc2ccccc21 [Compound 5i, 1-Nonyl-1H-indole] | < 0.7 | > 62.5 | 44.6 ± 1.7 | loss of potency towards BChE compared to 4i (BChE [1]; inhibition assay, 5i vs 4i): > 17 fold |
| CN1C(=O)C(=O)c2ccccc21 [Compound 4a, 1-Methylindoline-2,3-dione] | < 0.6 |  |  | Ki (AChE [5]): > 100 µM; IC50 (BChE [1]): > 1000 µM; IC50 (AChE [2]): 647 ± 57 µM; Ki (BChE [6]): > 100 µM |
| C=C1SC(SCCCN2C(=O)C(=O)c3ccccc32)=NC1(C)C [Compound 3] |  |  |  | mode of inhibition of AChE (AChE [8]): non-competitive inhibition; IC50 (AChE [4]): 18.2 µM |
| CCCCCCCCCCCCCCCCN1C(=O)C(=O)c2ccccc21 [N-hexadecyl isatin] |  |  |  | Ki (AChE [5]): > 100 µM; Ki (BChE [6]): > 100 µM |
| CCCn1ccc2ccccc21 [Compound 5c, 1-Propyl-1H-indole] | < 0.6 | > 125 | 78.6 ± 2.3 |  |
| CCCCCCCn1ccc2ccccc21 [Compound 5g, 1-Heptyl-1H-indole] | < 0.6 | > 62.5 | 35 ± 10.5 |  |
| CCCCCCCCCCn1ccc2ccccc21 [Compound 5j, 1-Decyl-1H-indole] | < 0.8 | > 62.5 | 48.6 ± 1.4 |  |
| CCCCCCCCn1ccc2ccccc21 [Compound 5h, 1-Octyl-1H-indole] | < 0.8 | > 62.5 | 49.5 ± 1.8 |  |
| CCCCCn1ccc2ccccc21 [Compound 5e, 1-Pentyl-1H-indole] | < 0.8 | > 125 | 95 ± 5.9 |  |
| CCCCCCCCCN1C(=O)C(=O)c2ccccc21 [Compound 4i, 1-Nonylindoline-2,3-dione] | 22 and 21.8 | 3.77 ± 0.45 | 82.1 ± 8.1 | mode of inhibition of BChE (BChE [9]): mixed inhibition; mode of inhibition of AChE (AChE [10]): non-competitive inhibition |
| CCN1C(=O)C(=O)c2ccccc21 [Compound 4b, 1-Ethylindoline-2,3-dione] | 1.5 | 193 ± 8 | 297 ± 35 |  |
| Cn1ccc2ccccc21 [Compound 5a, 1-Methyl-1H-indole] | < 0.7 |  |  | IC50 (BChE [1]): > 125 µM; IC50 (AChE [2]): 86.7 ± 4.5 µM |

From publication PMC11721616, “Evaluation of N-alkyl isatins and indoles as acetylcholinesterase and butyrylcholinesterase inhibitors” (Journal of Enzyme Inhibition and Medicinal Chemistry, 2023)
